One test concerns Hep3B cells (hepatocellular carcinoma cell line). The test is described as follows: In vitro MTS cell viability assay (NCI-60 methodology), Hep3B. It counts as cell-based. The note with it: Homo sapiens, 48 h, Table 1, MTS, 2 days drug incubation, 50% reduction vs time zero, read-out: Hep3B LC50. The method, boiled down:
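Following NCI-60 method, MTS viability of Hep3B measured 24 h after plating (time zero) and after a further 2-day exposure to five concentrations (2-fold series). LC50 defined where [(Ti−Tz)/Tz]×100 = −50.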
`CCOc1ccc(-c2nc(NC(=O)c3ccc([N+](=O)[O-])s3)c3cnn(C)c3n2)cc1` [Compound 1-2, N-(6-(4-ethoxyphenyl)-1-methyl-1H-pyrazolo[3,4-d]pyrimidin-4-yl)-5-nitrothiophene-2-carboxamide]: the LC50 was 3240 nM. For `CC(C)n1ncc2c(NC(=O)c3ccc([N+](=O)[O-])s3)nc(-c3ccc(C(F)(F)F)cc3)nc21` [Compound 1-24, N-(1-isopropyl-6-(4-(trifluoromethyl)phenyl)-1H-pyrazolo[3,4-d]pyrimidin-4-yl)-5-nitrothiophene-2-carboxamide], the LC50 was determined as 900 nM.

Still in this test, the particulars now being: Homo sapiens, 48 h, Table 4, MTS, 2 days drug incubation, 50% reduction vs time zero, read-out: Hep3B LC50.
With `CC(C)(C)c1ccc(-c2csc3c(NC(=O)c4ccc([N+](=O)[O-])s4)nc(-c4ccc(F)cc4)nc23)cc1` [Compound 4-19, N-(7-(4-(tert-butyl)phenyl)-2-(4-fluorophenyl)thieno[3,2-d]pyrimidin-4-yl)-5-nitrothiophene-2-carboxamide], the 50% lethal concentration (LC50) came out at 670 nM. Still for that read-out and setting: to `Cc1csc2c(NC(=O)c3ccc([N+](=O)[O-])s3)nc(N3CCC(F)(F)C3)nc12` [Compound 4-11, N-(2-(3,3-difluoropyrrolidin-1-yl)-7-methylthieno[3,2-d]pyrimidin-4-yl)-5-nitrothiophene-2-carboxamide] belongs 3180 nM; to `O=C(Nc1nc(-c2ccc(F)cc2)nc2c(-c3cccc(F)c3)csc12)c1ccc([N+](=O)[O-])s1` [Compound 4-18, N-(7-(3-fluorophenyl)-2-(4-fluorophenyl)thieno[3,2-d]pyrimidin-4-yl)-5-nitrothiophene-2-carboxamide], 490 nM.

The test is the same for the next values; noted with them: Homo sapiens, 48 h, Table 5, MTS, 2 days drug incubation, 50% reduction vs time zero, read-out: Hep3B LC50.
Turning to `CCOCCOc1ccc(-c2nc(NC(=O)c3ccc([N+](=O)[O-])s3)c3cnn(-c4ccccc4)c3n2)cn1` [Compound 5-55, N-(6-(6-(2-ethoxyethoxy)pyridin-3-yl)-1-phenyl-1H-pyrazolo[3,4-d]pyrimidin-4-yl)-5-nitrothiophene-2-carboxamide], the LC50 turned out to be 490 nM. With `O=C(Nc1nc(N2CCOCC2)nc2c1cnn2-c1ccccc1)c1ccc([N+](=O)[O-])s1` [Compound 5-7, N-(6-morpholino-1-phenyl-1H-pyrazolo[3,4-d]pyrimidin-4-yl)-5-nitrothiophene-2-carboxamide], the LC50 worked out at 1460 nM.

Staying with this test, now noted: Homo sapiens, 48 h, Table 6, MTS, 2 days drug incubation, 50% reduction vs time zero, read-out: Hep3B LC50.
Turning to `COc1ccc(-c2nc(NC(=O)c3ccc([N+](=O)[O-])s3)c3cnn(-c4ccc(C(C)(C)C)cc4)c3n2)cn1` [Compound 6-82, N-(1-(4-(tert-butyl)phenyl)-6-(6-methoxypyridin-3-yl)-1H-pyrazolo[3,4-d]pyrimidin-4-yl)-5-nitrothiophene-2-carboxamide], the LC50 came out at 380 nM. In the case of `CC(C)(C)c1ccc(-c2nc(NC(=O)c3ccc([N+](=O)[O-])s3)c3cnn(-c4ccc(OC(F)(F)F)cc4)c3n2)cc1` [Compound 6-86, N-(6-(4-(tert-butyl)phenyl)-1-(4-(trifluoromethoxy)phenyl)-1H-pyrazolo[3,4-d]pyrimidin-4-yl)-5-nitrothiophene-2-carboxamide], the LC50 was 3460 nM. Regarding `Cc1ccccc1-n1ncc2c(NC(=O)c3ccc([N+](=O)[O-])s3)nc(-c3ccc(F)nc3)nc21` [Compound 6-2], the LC50 is > 3000 nM. On to `O=C(Nc1nc(-c2ccc(F)cc2F)nc2c1cnn2-c1ccc(F)cc1)c1ccc([N+](=O)[O-])s1` [Compound 6-126], for which the LC50 is 350 nM.

As for `COCCN(C)c1ccc(-c2nc(NC(=O)c3ccc([N+](=O)[O-])s3)c3cnn(-c4ccc(F)cc4)c3n2)cn1` [Compound 6-131, N-(1-(4-fluorophenyl)-6-(6-((2-methoxyethyl)(methyl)amino)pyridin-3-yl)-1H-pyrazolo[3,4-d]pyrimidin-4-yl)-5-nitrothiophene-2-carboxamide], the LC50 came to 370 nM. Regarding `O=C(Nc1nc(-c2ccsc2)nc2c1cnn2-c1ccc(F)cc1)c1ccc([N+](=O)[O-])s1` [Compound 6-107], the 50% lethal concentration (LC50) came to 370 nM. The same measure, in the same setting: for `O=C(Nc1nc(-c2ccc(Cl)cc2)nc2c1cnn2-c1cccc(F)c1)c1ccc([N+](=O)[O-])s1` [Compound 6-91, N-(6-(4-chlorophenyl)-1-(3-fluorophenyl)-1H-pyrazolo[3,4-d]pyrimidin-4-yl)-5-nitrothiophene-2-carboxamide] the value was 180 nM; for `CCCOc1ccc(-c2nc(NC(=O)c3ccc([N+](=O)[O-])s3)c3cnn(-c4ccc(F)cc4)c3n2)cc1` [Compound 6-132], 430 nM. Regarding `O=C(Nc1nc(N2CCC[C@H]2CO)nc2c1cnn2-c1ccc(F)cc1)c1ccc([N+](=O)[O-])s1` [Compound 6-102, (S)—N-(1-(4-fluorophenyl)-6-(2-(hydroxymethyl)pyrrolidin-1-yl)-1H-pyrazolo[3,4-d]pyrimidin-4-yl)-5-nitrothiophene-2-carboxamide], the 50% lethal concentration (LC50) turned out to be 1300 nM.

Take `CC(C)(C)c1ccc(-n2ncc3c(NC(=O)c4ccc([N+](=O)[O-])s4)nc(N4CCCC4)nc32)cc1` [Compound 6-62, N-(1-(4-(tert-butyl)phenyl)-6-(pyrrolidin-1-yl)-1H-pyrazolo[3,4-d]pyrimidin-4-yl)-5-nitrothiophene-2-carboxamide]: the LC50 is 710 nM. Consider `Cc1ccn(-c2nc(NC(=O)c3ccc([N+](=O)[O-])s3)c3cnn(-c4ccc(C(C)(C)C)cc4)c3n2)n1` [Compound 6-77, N-(1-(4-(tert-butyl)phenyl)-6-(3-methyl-1H-pyrazol-1-yl)-1H-pyrazolo[3,4-d]pyrimidin-4-yl)-5-nitrothiophene-2-carboxamide], for which the LC50 is 250 nM.

Staying with this test, now noted: Homo sapiens, 48 h, Table 7, MTS, 2 days drug incubation, 50% reduction vs time zero, read-out: Hep3B LC50.
As to `O=C(Nc1nc(-c2ccc(F)cc2)nc2c1cnn2-c1ccc(Cl)cc1Cl)c1ccc([N+](=O)[O-])s1` [Compound 7-9], the LC50 is 370 nM.

On to `O=C(Nc1nc(-c2ccc(F)cc2)nc2c1cnn2-c1ccccn1)c1ccc([N+](=O)[O-])s1` [Compound 7-8, N-(6-(4-fluorophenyl)-1-(pyridin-2-yl)-1H-pyrazolo[3,4-d]pyrimidin-4-yl)-5-nitrothiophene-2-carboxamide], for which the LC50 stood at 580 nM. On to `O=C(Nc1nc(-c2ccc(OC(F)(F)F)cc2)nc2c1cnn2-c1ccc(C(F)(F)F)cn1)c1ccc([N+](=O)[O-])s1` [Compound 7-5, 5-nitro-N-(6-(4-(trifluoromethoxy)phenyl)-1-(5-(trifluoromethyl)pyridin-2-yl)-1H-pyrazolo[3,4-d]pyrimidin-4-yl)thiophene-2-carboxamide], for which the LC50 was determined as 310 nM.

Still in this test, the particulars now being: Homo sapiens, 48 h, Table 8, MTS, 2 days drug incubation, 50% reduction vs time zero, read-out: Hep3B LC50.
Take `CC(C)(C)C(=O)N1CC[C@H](n2ncc3c(NC(=O)c4ccc([N+](=O)[O-])s4)nc(-c4ccc(F)nc4)nc32)C1` [Compound 8-4, (S)—N-(6-(6-fluoropyridin-3-yl)-1-(1-pivaloylpyrrolidin-3-yl)-1H-pyrazolo[3,4-d]pyrimidin-4-yl)-5-nitrothiophene-2-carboxamide]: the LC50 was determined as 1490 nM.

Still in this test, the particulars now being: Homo sapiens, 48 h, Table 10, MTS, 2 days drug incubation, 50% reduction vs time zero, read-out: Hep3B LC50.
As to `O=C(Nc1nc(-c2ccc(Cl)s2)nc2c1cnn2C1CCCCC1)c1ccc([N+](=O)[O-])s1` [Compound 10-8, N-(6-(5-chlorothiophen-2-yl)-1-cyclohexyl-1H-pyrazolo[3,4-d]pyrimidin-4-yl)-5-nitrothiophene-2-carboxamide], the LC50 is 490 nM. Turning to `Cc1ccc(-c2nc(NC(=O)c3ccc([N+](=O)[O-])s3)c3cnn(C4CCCCC4)c3n2)s1` [Compound 10-7, N-(1-cyclohexyl-6-(5-methylthiophen-2-yl)-1H-pyrazolo[3,4-d]pyrimidin-4-yl)-5-nitrothiophene-2-carboxamide], the LC50 is 1530 nM. Consider `O=C(Nc1nc(-c2cccc(F)c2)nc2c1cnn2C1CCCCC1)c1ccc([N+](=O)[O-])s1` [Compound 10-12, N-(1-cyclohexyl-6-(3-fluorophenyl)-1H-pyrazolo[3,4-d]pyrimidin-4-yl)-5-nitrothiophene-2-carboxamide], for which the LC50 was 950 nM. For `CC1(C)CCC(n2ncc3c(NC(=O)c4ccc([N+](=O)[O-])s4)nc(-c4ccc(Cl)nc4)nc32)CC1` [Compound 10-64, N-(6-(6-chloropyridin-3-yl)-1-(4,4-dimethylcyclohexyl)-1H-pyrazolo[3,4-d]pyrimidin-4-yl)-5-nitrothiophene-2-carboxamide], the LC50 was 570 nM. Turning to `CN(C)Cc1ccc(-c2nc(NC(=O)c3ccc([N+](=O)[O-])s3)c3cnn(C4CCCCC4)c3n2)cc1` [Compound 10-29, N-(1-cyclohexyl-6-(4-((dimethylamino)methyl)phenyl)-1H-pyrazolo[3,4-d]pyrimidin-4-yl)-5-nitrothiophene-2-carboxamide], the LC50 stood at 1510 nM. For the compound `O=C(Nc1nc(-c2ccccc2F)nc2c1cnn2C1CCCCC1)c1ccc([N+](=O)[O-])s1` [Compound 10-11, N-(1-cyclohexyl-6-(2-fluorophenyl)-1H-pyrazolo[3,4-d]pyrimidin-4-yl)-5-nitrothiophene-2-carboxamide], the LC50 stood at 1940 nM. For `O=C(Nc1nc(-c2ccc(F)cc2F)nc2c1cnn2C1CCCCC1)c1ccc([N+](=O)[O-])s1` [Compound 10-39], the LC50 turned out to be 1240 nM.

`O=C(Nc1nc(-c2ccc(Cl)cc2F)nc2c1cnn2C1CCCCC1)c1ccc([N+](=O)[O-])s1` [Compound 10-45, N-(6-(4-chloro-2-fluorophenyl)-1-cyclohexyl-1H-pyrazolo[3,4-d]pyrimidin-4-yl)-5-nitrothiophene-2-carboxamide]: the LC50 came to 870 nM. In the case of `O=C(Nc1nc(-c2ccc(C(F)(F)F)cc2)nc2c1cnn2C1CCCCC1)c1ccc([N+](=O)[O-])s1` [Compound 10-24, N-(1-cyclohexyl-6-(4-(trifluoromethyl)phenyl)-1H-pyrazolo[3,4-d]pyrimidin-4-yl)-5-nitrothiophene-2-carboxamide], the LC50 worked out at 640 nM.

Values taken from patent publication US20240150356A1, “Pyrimidine amide compounds and use thereof” (ALPHALA CO., LTD., priority 2019, published 2024).
